Test [1] concerns the target T1, bradykinin receptor 1 (B1R) of the rat (Rattus norvegicus, UniProt P97583).
T1 construct: expressed in transfected cells; host or cells: CHO K1 cells
T1 sequence (P97583 1-337): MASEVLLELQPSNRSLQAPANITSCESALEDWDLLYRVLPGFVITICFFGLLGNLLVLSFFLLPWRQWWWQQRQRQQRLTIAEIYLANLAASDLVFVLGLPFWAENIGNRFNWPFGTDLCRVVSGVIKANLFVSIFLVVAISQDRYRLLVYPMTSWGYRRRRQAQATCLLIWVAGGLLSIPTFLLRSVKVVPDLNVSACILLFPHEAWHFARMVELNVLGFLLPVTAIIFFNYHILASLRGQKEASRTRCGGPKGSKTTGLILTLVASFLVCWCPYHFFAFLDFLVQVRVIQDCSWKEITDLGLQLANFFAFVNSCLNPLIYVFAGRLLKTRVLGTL
Put plainly: Functional study on the bradykinin receptor 1 (B1R), rat: FLIPR Ca2+ influx assay. The test is classed as cell-based. To be noted: test substance 10 μM; CHO K1 cells transfected with rat B1R; Des-Arg9-bradykinin at EC80; Ca2+ influx (Fluo-4, FLIPR); read-out: B1R antagonism, rat [10 μM] % inhibition. From the text:
(§1) The agonistic or antagonistic action of substances can be determined on the bradykinin receptor 1 (B1R) of the species human and rat using the following assay. According to this assay, the Ca^2+ influx through the channel is quantified with the aid of a Ca^2+-sensitive dye (Fluo-4 type, Molecular Probes Europe BV, Leiden, Netherlands) using a Fluorescent Imaging Plate Reader (FLIPR, Molecular Devices, Sunnyvale, USA).
(§2) Chinese hamster ovary cells (CHO K1 cells) which have been stably transfected with the human B1R gene (hB1R cells) or with the B1R gene of the rat (rB1R cells) are used. For functional studies, the cells are plated out on black 96-well plates having a clear base (BD Biosciences, Heidelberg, Germany or Greiner, Frickenhausen, Germany) in a density of 20,000-35,000 cells/well. The cells are incubated overnight at 37° C. and with 5% CO2 in culture medium (hB1R cells: Nutrient Mixture Ham's F12, Gibco Invitrogen GmbH, Karlsruhe, Germany or DMEM, Sigma-Aldrich, Taufkirchen, Germany; rB1R cells: D-MEM/F12, Gibco Invitrogen GmbH, Karlsruhe, Germany), with 10 vol. % FBS (fetal bovine serum, Gibco Invitrogen GmbH, Karlsruhe, Germany or PAN Biotech GmbH, Aidenbach, Germany).
(§3) On the following day, the cells are loaded for 60 minutes at 37° C. with 2.13 μM Fluo-4 (Molecular Probes Europe BV, Leiden, Netherlands) in HBSS buffer (Hank's buffered saline solution, Gibco Invitrogen GmbH, Karlsruhe, Germany) with 2.5 mM probenecid (Sigma-Aldrich, Taufkirchen, Germany) and 10 mM HEPES (Sigma-Aldrich, Taufkirchen, Germany). The plates are then washed twice with HBSS buffer, and HBSS buffer additionally containing 0.1% BSA (bovine serum albumin; Sigma-Aldrich, Taufkirchen, Germany), 5.6 mM glucose and 0.05% gelatin (Merck KGaA, Darmstadt, Germany) is added to the plates. After incubation for a further 20 minutes at room temperature, the plates are inserted into the FLIPR for Ca^2+ measurement. Alternatively, washing is carried out with buffer A (15 mM HEPES, 80 mM NaCl, 5 mM KCl, 1.2 mM CaCl2, 0.7 mM MgSO4, 2 g/l glucose, 2.5 mM probenecid) followed by loading with buffer A with added 2.5 μM Fluo-4 and 0.025% Pluronic F127 (Sigma-Aldrich, Taufkirchen, Germany). The cells are then washed twice with buffer A and incubated for 30 minutes at room temperature with buffer A additionally containing 0.05% BSA and 0.05% gelatin and are then inserted into the FLIPR for Ca^2+ measurement.
(§4) The Ca^2+-dependent fluorescence is measured before and after the addition of substances (λex=488 nm, λem=540 nm). Quantification is carried out by measuring the highest fluorescence intensity (FC, fluorescence counts) over time.
(§5) The FLIPR protocol consists of two substance additions. Test substances (10 μM) are first pipetted onto the cells and the Ca^2+ influx is compared with the control (hB1R: Lys-Des-Arg^9-bradykinin>=0.5 nM; rB1R: Des-Arg^9-bradykinin 10 μM). This gives the activation in %, based on the Ca^2+ signal after addition of Lys-Des-Arg^9-bradykinin (>=0.5 nM) or Des-Arg^9-bradykinin (10 μM).
(§6) After 10-20 minutes' incubation, Lys-Des-Arg^9-bradykinin (hB1R) or Des-Arg^9-bradykinin (rB1R) is applied in the concentration of the EC80, and the influx of Ca^2+ is likewise determined.
(§7) Antagonists lead to suppression of the Ca^2+ influx. The % inhibition compared with the maximum achievable inhibition is calculated.
(§8) In order to determine the IC50 value, the substances are added in various concentrations. Duplicate or triplicate determinations (n=2 or n=3) are carried out, and these are repeated in at least one further independent experiment (N>=2).

The target of test [2] is T2, human bradykinin receptor 1 (B1R) (Homo sapiens, UniProt P46663).
T2 construct: expressed in transfected cells; host or cells: CHO K1 cells
T2 sequence (P46663 1-353): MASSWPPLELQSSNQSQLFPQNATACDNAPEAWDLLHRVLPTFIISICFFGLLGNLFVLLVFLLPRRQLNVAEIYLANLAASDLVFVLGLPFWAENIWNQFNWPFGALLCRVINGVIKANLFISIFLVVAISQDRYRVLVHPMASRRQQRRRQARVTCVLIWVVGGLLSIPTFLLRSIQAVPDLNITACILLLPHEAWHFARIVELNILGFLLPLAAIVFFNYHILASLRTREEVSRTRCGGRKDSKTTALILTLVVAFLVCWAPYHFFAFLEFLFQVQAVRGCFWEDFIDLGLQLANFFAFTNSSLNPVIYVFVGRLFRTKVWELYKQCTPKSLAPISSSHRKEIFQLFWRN
Put plainly: Functional study on the bradykinin receptor 1 (B1R), human: FLIPR Ca2+ influx assay. The test is classed as cell-based. To be noted: test substance 10 μM; CHO K1 cells transfected with human B1R; Lys-Des-Arg9-bradykinin at EC80; Ca2+ influx (Fluo-4, FLIPR); read-out: B1R antagonism, human [10 μM] % inhibition.
Source text: Functional Study on the Human Bradykinin Receptor 1 (B1R)
as §1, §2, §3, §4, §5, §6, §7, §8

In the case of `COc1ccc(S(=O)(=O)N2CCc3ccccc3C2CC(=O)NC2CCC(C(c3ccccc3)N(C)C)CC2)cc1` (centres unmarked) [Example 9, N-[4-(dimethylamino-phenyl-methyl)-cyclohexyl]-2-[2-(4-methoxy-benzenesulfonyl)-1,2,3,4-tetrahydro-isoquinolin-1-yl]-acetamide], the inhibition at 10 µM in test [1] is 0%; in test [2], 105%.

Regarding `CN(C)C(c1ccccc1)C1CCC(NC(=O)CC2c3ccccc3CCN2S(=O)(=O)c2ccc(Cl)c(Cl)c2)CC1` (centres unmarked) [Example 10, 2-[2-(3,4-dichloro-benzenesulfonyl)-1,2,3,4-tetrahydro-isoquinolin-1-yl]-N-[4-(dimethylamino-phenyl-methyl)-cyclohexyl]-acetamide], the inhibition at 10 µM in test [1] amounted to 0%; in test [2] it was 70.1%.

As to `CN(C)C(c1ccccc1)C1CCC(NC(=O)c2c(N(C)S(=O)(=O)c3ccc(Cl)c(Cl)c3)sc3c2CCCC3)CC1` (centres unmarked) [Example 12, 2-[(3,4-dichloro-benzenesulfonyl)-methyl-amino]-4,5,6,7-tetrahydrobenzo[b]thiophene-3-carboxylic acid [4-(dimethylamino-phenyl-methyl)cyclohexyl]-amide], the inhibition at 10 µM in test [1] is 0%.

Turning to `CN(C)C(c1cccs1)C1CCC(CNC(=O)c2ccccc2N(C)S(=O)(=O)c2ccc(Cl)c(Cl)c2)CC1` (centres unmarked) [Example 42, 2-[(3,4-dichloro-benzenesulfonyl)-methyl-amino]-N-[4-(dimethylamino-thiophen-2-yl-methyl)-cyclohexylmethyl]-benzamide], in test [1], the inhibition at 10 µM is 3%.

In the case of `CN(C)C(c1ccccc1)C1CCC(CNC(=O)c2c(N(C)S(=O)(=O)c3ccc(Cl)c(Cl)c3)sc3c2CCCC3)CC1` (centres unmarked) [Example 46, 2-[(3,4-dichloro-benzenesulfonyl)-methyl-amino]-4,5,6,7-tetrahydrobenzo[b]thiophene-3-carboxylic acid [4-(dimethylamino-phenyl-methyl)cyclohexylmethyl]-amide], the inhibition at 10 µM in test [1] is -9%.

As to `CN(C)C(c1ccc(F)cc1)C1CCC(CNC(=O)c2c(N(C)S(=O)(=O)c3ccc(Cl)c(Cl)c3)sc3c2CCCC3)CC1` (centres unmarked) [Example 47, 2-[(3,4-dichloro-benzenesulfonyl)-methyl-amino]-4,5,6,7-tetrahydrobenzo[b]thiophene-3-carboxylic acid {4-[dimethylamino-(4-fluoro-phenyl)methyl]-cyclohexylmethyl}-amide], in test [1], the inhibition at 10 µM is 12%.

With `CN(C)C(c1ccc(Cl)cc1)C1CCC(CNC(=O)c2c(N(C)S(=O)(=O)c3ccc(Cl)c(Cl)c3)sc3c2CCCC3)CC1` (centres unmarked) [Example 48, 2-[(3,4-dichloro-benzenesulfonyl)-methyl-amino]-4,5,6,7-tetrahydrobenzo[b]thiophene-3-carboxylic acid {4-[(4-chloro-phenyl)-dimethylamino-methyl]-cyclohexylmethyl}-amide], the inhibition at 10 µM in test [1] was determined as 19%.

For the compound `CN(C)C(c1cccs1)C1CCC(CNC(=O)c2c(N(C)S(=O)(=O)c3ccc(Cl)c(Cl)c3)sc3c2CCCC3)CC1` (centres unmarked) [Example 49, 2-[(3,4-dichloro-benzenesulfonyl)-methyl-amino]-4,5,6,7-tetrahydrobenzo[b]thiophene-3-carboxylic acid [4-(dimethylamino-thiophen-2-yl-methyl)cyclohexylmethyl]-amide], the inhibition at 10 µM in test [1] is 19%.

Turning to `CN(C)C(c1ccc(Cl)cc1)C1CCC(CCNC(=O)c2c(N(C)S(=O)(=O)c3ccc(Cl)c(Cl)c3)sc3c2CCCC3)CC1` (centres unmarked) [Example 50, N-(2-(4-((4-chlorophenyl)(dimethylamino)methyl)cyclohexyl)ethyl)-2-(3,4-dichloro-N-methylphenylsulfonamido)-4,5,6,7-tetrahydrobenzo[b]thiophene-3-carboxamide], the inhibition at 10 µM in test [1] is 11%.

Regarding `CN(C)C(c1cccc(F)c1)C1CCC(CCNC(=O)c2c(N(C)S(=O)(=O)c3ccc(Cl)c(Cl)c3)sc3c2CCCC3)CC1` (centres unmarked) [Example 51, 2-(3,4-dichloro-N-methylphenylsulfonamido)-N-(2-(4-((dimethylamino)(3-fluorophenyl)methyl)cyclohexyl)ethyl)-4,5,6,7-tetrahydrobenzo[b]thiophene-3-carboxamide], in test [1], the inhibition at 10 µM is 1%.

In the case of `CN(C)C(c1ccc(F)cc1)C1CCC(CCNC(=O)c2c(N(C)S(=O)(=O)c3ccc(Cl)c(Cl)c3)sc3c2CCCC3)CC1` (centres unmarked) [Example 52, 2-(3,4-dichloro-N-methylphenylsulfonamido)-N-(2-(4-((dimethylamino)(4-fluorophenyl)methyl)cyclohexyl)ethyl)-4,5,6,7-tetrahydrobenzo[b]thiophene-3-carboxamide], the inhibition at 10 µM in test [1] was -22%.

Take `CN(C)C(c1cccs1)C1CCC(CCNC(=O)c2c(N(C)S(=O)(=O)c3ccc(Cl)c(Cl)c3)sc3c2CCCC3)CC1` (centres unmarked) [Example 53, 2-(3,4-dichloro-N-methylphenylsulfonamido)-N-(2-(4-((dimethylamino)(thiophen-2-yl)methyl)cyclohexyl)ethyl)-4,5,6,7-tetrahydrobenzo[b]thiophene-3-carboxamide]: the inhibition at 10 µM in test [1] was found to be 12%.

Consider `CN(C)C(c1ccc(F)cc1)C1CCC(NC(=O)C2Cc3ccccc3N2S(=O)(=O)c2ccc(Cl)c(Cl)c2)CC1` (centres unmarked) [Example 94, 1-(3,4-dichlorophenylsulfonyl)-N-(4-((dimethylamino)(4-fluorophenyl)methyl)cyclohexyl)indoline-2-carboxamide], for which, in test [1], the inhibition at 10 µM was -19%.

As for `CN(C)C(CCc1ccccc1)C1CCC(CNC(=O)C2Cc3ccccc3N2S(=O)(=O)c2ccc(Cl)c(Cl)c2)CC1` (centres unmarked) [Example 96, 1-(3,4-dichlorophenylsulfonyl)-N-((4-(1-(dimethylamino)-3-phenylpropyl)cyclohexyl)methyl)indoline-2-carboxamide], the inhibition at 10 µM in test [1] is 12%.

Consider `COc1ccc(S(=O)(=O)N(C)C2(C(=O)NCCC3CCC(C(c4ccccc4)N(C)C)CC3)CCCCC2)cc1` (centres unmarked) [Example 100, N-(2-(4-((dimethylamino)(phenyl)methyl)cyclohexyl)ethyl)-1-(4-methoxy-N-methylphenylsulfonamido)cyclohexanecarboxamide], for which the inhibition at 10 µM in test [1] is -2%.
